# Laboratory results: patent publication US20110173718A1, “HERBICIDE TOLERANT PLANTS” (SYNGENTA CROP PROTECTION, INC., priority 2008, published 2011)
# Values joined by “and” are separate entries in the source; they are usually repeats but may differ in a detail not shown here. Equal values may be shown once. Read-outs that look alike come from different tables or passages of the source.
# Columns and labels:
# Assay type in all cases: in vivo
# [1] = system: wild-type (WT) Samsun tobacco; experiment: Glasshouse spray test, wild-type tobacco; settings: for % damage observed 16 DAT: w/t tobacco; for score on a scale from 0 to 10 (0 substantially bleached/burnt, meristem dead/white; 10 entire plant green and undamaged): 500 g/ha, 11 DAT
# Method in brief: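 Wild-type Samsun tobacco grown from seed was planted in 3 inch pots, grown on under glasshouse conditions (about 24-27° C. day, 18-21° C. night, ~14 h photoperiod, ~65% humidity) and spray-treated alongside transgenic lines. Test chemicals were formulated in water with 0.2% X77 surfactant and applied by track sprayer at 200 l/ha. Height reduction, bleaching and damage were scored against unsprayed control plants of like size.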
# [2] = system: weeds; experiment: Glasshouse weed control, HST inhibitors alone and with A22, post-emergence; settings: 14 DAT, single replicate; for pest or weed control at 15.625 g/ha / pest or weed control at 62.5 g/ha / pest or weed control at 250 g/ha: 336 h, read-out: % control score, Obs
# Method in brief: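 Weeds grown in glasshouse trays (24-27 C day, 18-21 C night, ~15 h photoperiod) and track-sprayed in 0.2% X77 at […], pre-emergence or post-emergence at about 7-12 d. HPPD inhibitor A22 applied at 2 g/ha alone or mixed with HST herbicides. Damage scored 0–100% at 14 DAT; synergy calculated by Colby formula.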
# [3] = system: Chlamydomonas HST T0 tobacco lines; experiment: Glasshouse spray test, Chlamydomonas HST transgenic tobacco; set-up: herbicidal damage score: scale not given here; settings: Chlamydomonas HST T0 tobacco events (one value per event), 15 g/ha of mesotrione, 21 DAT
# Excerpt: In just the same way the Chlamydomonas HST gene sequence (AM285678) is codon-optimised for tobacco and cloned behind the double Cauliflower mosaic virus 35S promoter and Tobacco mosaic virus enhancer sequences and in front of a nos gene terminator, cloned into a binary vector and transformed into tobacco to produce a population of T0 plants.
# [4] = system: Arabidopsis HST transgenic tobacco plants; experiment: Glasshouse spray test, Arabidopsis HST transgenic tobacco; settings: 25 gai/ha; D2 line (Arabidopsis HST, segregating T1), individual plants
# [5] = Digitaria sanguinalis, DIGSA, 15.625 g/ha alone
# [6] = Digitaria sanguinalis, DIGSA, 62.5 g/ha alone
# [7] = Digitaria sanguinalis, DIGSA, 250 g/ha alone
# [8] = Echinochloa crus-galli, ECHCG, 15.625 g/ha alone
# [9] = Echinochloa crus-galli, ECHCG, 62.5 g/ha alone
# [10] = Echinochloa crus-galli, ECHCG, 250 g/ha alone
# [11] = Setaria faberi, SETFA, 15.625 g/ha alone
# [12] = Setaria faberi, SETFA, 62.5 g/ha alone
# [13] = Setaria faberi, SETFA, 250 g/ha alone
# [14] = WT tobacco, spray with 40 g of compound 1.1, 7 DAT
# [15] = WT tobacco, spray with 40 g of compound 1.1, 14 DAT
smiles,measurement,setting,value
O=c1c(-c2c(F)ccc(F)c2Cl)c(O)c2nccnc2n1CC(F)F [Compound 2.3],% damage observed 16 DAT,[1]; 37 g/ha,17%
same,% damage observed 16 DAT,[1]; 111 g/ha,40%
same,% damage observed 16 DAT,[1]; 333 g/ha,47%
same,"score on a scale from 0 to 10 (0 substantially bleached/burnt, meristem dead/white; 10 entire plant green and undamaged)",[1]; W/T_SD,0
same,"score on a scale from 0 to 10 (0 substantially bleached/burnt, meristem dead/white; 10 entire plant green and undamaged)",[1]; W/T_TC,0
same,% damage observed 16 DAT,[1]; 1000 g/ha,57%
same,"% control score, Obs","[2]; BRAPL, 15.625 g/ha alone",20%
same,"% control score, Obs","[2]; BRAPL, 62.5 g/ha alone",50%
same,"% control score, Obs","[2]; BRAPL, 250 g/ha alone",70%
same,"% control score, Obs","[2]; DIGSA, 15.625 g/ha alone",2%
same,"% control score, Obs","[2]; DIGSA, 62.5 g/ha alone",35%
same,"% control score, Obs","[2]; DIGSA, 250 g/ha alone",45%
same,"% control score, Obs","[2]; ECHCG, 15.625 g/ha alone",5%
same,"% control score, Obs","[2]; ECHCG, 62.5 g/ha alone",30%
same,"% control score, Obs","[2]; ECHCG, 250 g/ha alone",40%
same,"% control score, Obs","[2]; PANMI, 15.625 g/ha alone",2%
same,"% control score, Obs","[2]; PANMI, 62.5 g/ha alone",55%
same,"% control score, Obs","[2]; PANMI, 250 g/ha alone",65%
same,"% control score, Obs","[2]; SETFA, 15.625 g/ha alone",5%
same,"% control score, Obs","[2]; SETFA, 62.5 g/ha alone",40%
same,"% control score, Obs","[2]; SETFA, 250 g/ha alone",60%
same,"% control score, Obs","[2]; SIDSP, 15.625 g/ha alone",10%
same,"% control score, Obs","[2]; SIDSP, 62.5 g/ha alone",40%
same,"% control score, Obs","[2]; SIDSP, 250 g/ha alone",55%
O=c1c(-c2c(F)ccc(Br)c2Cl)c(O)c2nccnc2n1CC(F)F [Compound 2.8],pest or weed control at 15.625 g/ha,"[2]; BRAPL, 15.625 g/ha alone",20%
same,pest or weed control at 62.5 g/ha,"[2]; BRAPL, 62.5 g/ha alone",55%
same,pest or weed control at 250 g/ha,"[2]; BRAPL, 250 g/ha alone",85%
same,pest or weed control at 15.625 g/ha,"[2]; PANMI, 15.625 g/ha alone",40%
same,pest or weed control at 62.5 g/ha,"[2]; PANMI, 62.5 g/ha alone",50%
same,pest or weed control at 250 g/ha,"[2]; PANMI, 250 g/ha alone",80%
same,pest or weed control at 15.625 g/ha,"[2]; SIDSP, 15.625 g/ha alone",30%
same,pest or weed control at 62.5 g/ha,"[2]; SIDSP, 62.5 g/ha alone",45%
same,pest or weed control at 250 g/ha,"[2]; SIDSP, 250 g/ha alone",50%
same,pest or weed control at 15.625 g/ha,[2]; [5],5%
same,pest or weed control at 62.5 g/ha,[2]; [6],20%
same,pest or weed control at 250 g/ha,[2]; [7],60%
same,pest or weed control at 15.625 g/ha,[2]; [8],10%
same,pest or weed control at 62.5 g/ha,[2]; [9],40%
same,pest or weed control at 250 g/ha,[2]; [10],65%
same,pest or weed control at 15.625 g/ha,[2]; [11],5%
same,pest or weed control at 62.5 g/ha,[2]; [12],65%
same,pest or weed control at 250 g/ha,[2]; [13],60%
"CS(=O)(=O)c1ccc(C(=O)C2C(=O)CCCC2=O)c([N+](=O)[O-])c1 [Mesotrione, mesotrione, reference compound]",Damage % 5 DAT,"[1]; 10 g/ha, 5 DAT, wt plants",55% and 50% and 60%
same,% damage observed 16 DAT,[1]; 37 g/ha,66%
same,percent damage at 6 DAT,"[1]; 100 g/ha, WT, reps",80% and 70%
same,% damage observed 16 DAT,[1]; 111 g/ha,57%
same,% damage observed 16 DAT,[1]; 333 g/ha,57%
same,% damage observed 16 DAT,[1]; 1000 g/ha,54%
same,ht (herbicidal damage),"[1]; WT tobacco, 15 g/ha of mesotrione, 21 DAT",90 and 85 and 75
same,herbicidal damage score,[3],70 and 55 and 85 and 65 and 80 and 75 and 60 and 100
O=c1c(-c2cc(C(F)(F)F)ccc2Cl)c(O)c2nccnc2n1CC(F)F [Compound 2.9],pest or weed control at 15.625 g/ha,"[2]; BRAPL, 15.625 g/ha alone",15%
same,pest or weed control at 62.5 g/ha,"[2]; BRAPL, 62.5 g/ha alone",55%
same,pest or weed control at 250 g/ha,"[2]; BRAPL, 250 g/ha alone",70%
same,pest or weed control at 15.625 g/ha,"[2]; PANMI, 15.625 g/ha alone",30%
same,pest or weed control at 62.5 g/ha,"[2]; PANMI, 62.5 g/ha alone",50%
same,pest or weed control at 250 g/ha,"[2]; PANMI, 250 g/ha alone",70%
same,pest or weed control at 15.625 g/ha,"[2]; SIDSP, 15.625 g/ha alone",10%
same,pest or weed control at 62.5 g/ha,"[2]; SIDSP, 62.5 g/ha alone",20%
same,pest or weed control at 250 g/ha,"[2]; SIDSP, 250 g/ha alone",20%
same,pest or weed control at 15.625 g/ha,[2]; [5],2%
same,pest or weed control at 62.5 g/ha,[2]; [6],10%
same,pest or weed control at 250 g/ha,[2]; [7],15%
same,pest or weed control at 15.625 g/ha,[2]; [8],20%
same,pest or weed control at 62.5 g/ha,[2]; [9],40%
same,pest or weed control at 250 g/ha,[2]; [10],70%
same,pest or weed control at 15.625 g/ha,[2]; [11],20%
same,pest or weed control at 62.5 g/ha,[2]; [12],50%
same,pest or weed control at 250 g/ha,[2]; [13],65%
O=c1c(-c2c(F)ccc(Br)c2Cl)c(O)c2cccnc2n1CC(F)F [Compound 2.15],pest or weed control at 15.625 g/ha,"[2]; BRAPL, 15.625 g/ha alone",0%
same,pest or weed control at 62.5 g/ha,"[2]; BRAPL, 62.5 g/ha alone",0%
same,pest or weed control at 250 g/ha,"[2]; BRAPL, 250 g/ha alone",5%
same,pest or weed control at 15.625 g/ha,"[2]; PANMI, 15.625 g/ha alone",0%
same,pest or weed control at 62.5 g/ha,"[2]; PANMI, 62.5 g/ha alone",0%
same,pest or weed control at 250 g/ha,"[2]; PANMI, 250 g/ha alone",0%
same,pest or weed control at 15.625 g/ha,"[2]; SIDSP, 15.625 g/ha alone",0%
same,pest or weed control at 62.5 g/ha,"[2]; SIDSP, 62.5 g/ha alone",10%
same,pest or weed control at 250 g/ha,"[2]; SIDSP, 250 g/ha alone",15%
same,pest or weed control at 15.625 g/ha,[2]; [5],0%
same,pest or weed control at 62.5 g/ha,[2]; [6],0%
same,pest or weed control at 250 g/ha,[2]; [7],0%
same,pest or weed control at 15.625 g/ha,[2]; [8],0%
same,pest or weed control at 62.5 g/ha,[2]; [9],0%
same,pest or weed control at 250 g/ha,[2]; [10],2%
same,pest or weed control at 15.625 g/ha,[2]; [11],0%
same,pest or weed control at 62.5 g/ha,[2]; [12],0%
same,pest or weed control at 250 g/ha,[2]; [13],2%
O=c1c(-c2c(Cl)ccc(Cl)c2Cl)c(O)c2nccnc2n1CC(F)F [Compound 2.14],pest or weed control at 15.625 g/ha,"[2]; BRAPL, 15.625 g/ha alone",30%
same,pest or weed control at 62.5 g/ha,"[2]; BRAPL, 62.5 g/ha alone",60%
same,pest or weed control at 250 g/ha,"[2]; BRAPL, 250 g/ha alone",60%
same,pest or weed control at 15.625 g/ha,"[2]; PANMI, 15.625 g/ha alone",40%
same,pest or weed control at 62.5 g/ha,"[2]; PANMI, 62.5 g/ha alone",60%
same,pest or weed control at 250 g/ha,"[2]; PANMI, 250 g/ha alone",90%
same,pest or weed control at 15.625 g/ha,"[2]; SIDSP, 15.625 g/ha alone",15%
same,pest or weed control at 62.5 g/ha,"[2]; SIDSP, 62.5 g/ha alone",30%
same,pest or weed control at 250 g/ha,"[2]; SIDSP, 250 g/ha alone",50%
same,pest or weed control at 15.625 g/ha,[2]; [5],10%
same,pest or weed control at 62.5 g/ha,[2]; [6],20%
same,pest or weed control at 250 g/ha,[2]; [7],20%
same,pest or weed control at 15.625 g/ha,[2]; [8],30%
same,pest or weed control at 62.5 g/ha,[2]; [9],50%
same,pest or weed control at 250 g/ha,[2]; [10],65%
same,pest or weed control at 15.625 g/ha,[2]; [11],25%
same,pest or weed control at 62.5 g/ha,[2]; [12],60%
same,pest or weed control at 250 g/ha,[2]; [13],70%
"Oc1c(Cl)c(F)nc(F)c1Cl [Compound 1.1, haloxydine]",% damage at 7 DAT,"[1]; 25 gai/ha, WT Samsun, individual plants",75%
same,% damaged,"[1]; 250 g/ha, 8 DAT, w/t plants, 4-5 leaf",55% and 65%
same,% damage,"[1]; 250 g/ha, 25 DAT, w/t plants",50-70%
same,blch: % bleaching at the meristem relative to control plants,[1]; [14],70% and 65% and 60% and 75% and 80%
same,ht: % height reduction relative to control plants,[1]; [14],60% and 65% and 75% and 70%
same,blch: % bleaching at the meristem relative to control plants,[1]; [15],40% and 70% and 60% and 75% and 65%
same,ht: % height reduction relative to control plants,[1]; [15],60% and 70% and 75% and 65%
same,ht: % height reduction relative to control plants,"[1]; WT tobacco, spray with 40 g of compound 1.1, 21 DAT",70% and 80% and 85% and 60% and 55% and 65%
same,% damage at 7 DAT,[4],55% (2×) and 35% and 65% (3×) and 100% and 30%
